Type in all cases: biochemical
The target of assay [1] is PI3Kγ (Homo sapiens (Human), UniProt P48736). The assay is described as follows: PI3K Enzyme Assay A2 ([γ-33P]ATP filter plate), PI3Kγ. To be noted: Assay A2, 1000 μM ATP. How it is done:
Materials: Lipid kinase substrate, phosphoinositol-4,5-bisphosphate (PIP2), was purchased from Echelon Biosciences (Salt Lake City, Utah). PI3K isoforms α, β, δ and γ were purchased from Millipore (Bedford, Mass.). ATP, MgCh, DTT, EDTA, MOPS and CHAPS were purchased from Sigma-Aldrich (St. Louis, Mo.).
The kinase reaction was conducted in clear-bottom 96-well plate from Thermo Fisher Scientific in a final volume of 24 μL. Inhibitors were first diluted serially in DMSO and added to the plate wells before the addition of other reaction components. The final concentration of DMSO in the assay was 0.5%. The PI3K assays were carried out at room temperature in 20 mM MOPS, pH 6.7, 10 mM MgCl2, 5 mM DTT and CHAPS 0.03%. The reaction mixture was prepared containing 50 μM PIP2, kinase and varying concentration of inhibitors. Reactions were initiated by the addition of ATP containing 2.2 μCi [γ-^33P]ATP to a final concentration of 1000 μM. The final concentration of PI3K isoforms α, β, δ and γ in the assay were 1.3, 9.4, 2.9 and 10.8 nM respectively. Reactions were incubated for 180 min and terminated by the addition of 100 μL of 1 M potassium phosphate pH 8.0, 30 mM EDTA quench buffer. A 100 μL aliquot of the reaction solution was then transferred to 96-well Millipore MultiScreen IP 0.45 μm PVDF filter plate (The filter plate was prewetted with 200 μL 100% ethanol, distilled water, and 1 M potassium phosphate pH 8.0, respectively). The filter plate was aspirated on a Millipore Manifold under vacuum and washed with 18×200 μL wash buffer containing 1 M potassium phosphate pH 8.0 and 1 mM ATP. After drying by aspiration and blotting, the plate was air dried in an incubator at 37° C. overnight. Packard TopCount adapter (Millipore) was then attached to the plate followed with addition of 120 μL Microscint 20 scintillation cocktail (Perkin Elmer) in each well. After the plate sealing, the radioactivity of the product was determined by scintillation counting on Topcount (Perkin-Elmer). IC50 determination was performed by fitting the curve of percent control activity versus the log of the inhibitor concentration using the GraphPad Prism 3.0 software. […] See Table 1 for data related to compounds of the invention.

In assay [2] the target is T1, PI3Kδ (p110δ/p85α) (Homo sapiens (Human), UniProt O00329). The assay is described as follows: PI3Kδ Scintillation Proximity Assay (Assay A3). To be noted: column b, Assay A3 (SPA), 20 μM ATP. In outline: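 Radiometric SPA: 33P-labelled […] bound to WGA beads after EDTA/ATP quench, counted by scintillation, fitted against log inhibitor for IC50. Reaction: 4 nM PI3Kδ (p110δ/p85α), 20 μM ATP, 20 μM PIP2, pH 6.7 MOPS buffer with MgCl2, DTT, CHAPS, 0.5% DMSO, room temperature, 210 min.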
For orientation: In a scintillation proximity assay essentially only radioactivity close to the scintillant gives light.

Assay [3] concerns the target T1, PI3Kδ (p110δ/p85α). In words: AlphaScreen Assay for PI3Kδ (Assay A1). Particulars: column a, 20 μM ATP. The text has this:
PI3-Kinase luminescent assay kit including lipid kinase substrate, D-myo-phosphatidylinositol 4,5-bisphosphate (PtdIns(4,5)P2)D (+)-sn-1,2-di-O-octanoylglyceryl, 3-O-phospho linked (PIP2), biotinylated I(1,3,4,5)P4, PI(3,4,5)P3 Detector Protein, was purchased from Echelon Biosciences (Salt Lake City, Utah). AlphaScreen™ GST Detection Kit including donor and acceptor beads was purchased from PerkinElmer Life Sciences (Waltham, Mass.). PI3Kδ (p110δ/p85α) was purchased from Millipore (Bedford, Mass.). ATP, MgCb, DTT, EDTA, HEPES and CHAPS were purchased from Sigma-Aldrich (St. Louis, Mo.).
AlphaScreen™ Assay for PI3Kδ
The kinase reaction was conducted in 384-well REMP plate from Thermo Fisher Scientific in a final volume of 40 μL. Inhibitors were first diluted serially in DMSO and added to the plate wells before the addition of other reaction components. The final concentration of DMSO in the assay was 2%. The PI3K assays were carried out at room temperature in 50 mM HEPES, pH 7.4, 5 mM MgCl2, 50 mM NaCl, 5 mM DTT and CHAPS 0.04%. Reactions were initiated by the addition of ATP, the final reaction mixture consisted of 20 μM PIP2, 20 μM ATP, 1.2 nM PI3Kδ were incubated for 20 min. 10 μL of reaction mixture was then transferred to 5 μL 50 nM biotinylated I(1,3,4,5)P4 in quench buffer: 50 mM HEPES pH 7.4, 150 mM NaCl, 10 mM EDTA, 5 mM DTT, 0.1% Tween-20, followed with the addition of 10 μL AlphaScreen™ donor and acceptor beads suspended in quench buffer containing 25 nM PI(3,4,5)P3 detector protein. The final concentration of both donor and acceptor beads is […]. After plate sealing, the plate was incubated in a dark location at room temperature for 2 hours. The activity of the product was determined on Fusion-alpha microplate reader (Perkin-Elmer). IC50 determination was performed by fitting the curve of percent control activity versus the log of the inhibitor concentration using the GraphPad Prism 3.0 software.

Molecules are shown by their SMILES.

The record followed here is patent US9975907B2, “Pyrimidinones as PI3K inhibitors” (Incyte Corporation, priority 2009, dated 2018).

Sequence of PI3Kγ (P48736 whole entry, species assumed, canonical isoform): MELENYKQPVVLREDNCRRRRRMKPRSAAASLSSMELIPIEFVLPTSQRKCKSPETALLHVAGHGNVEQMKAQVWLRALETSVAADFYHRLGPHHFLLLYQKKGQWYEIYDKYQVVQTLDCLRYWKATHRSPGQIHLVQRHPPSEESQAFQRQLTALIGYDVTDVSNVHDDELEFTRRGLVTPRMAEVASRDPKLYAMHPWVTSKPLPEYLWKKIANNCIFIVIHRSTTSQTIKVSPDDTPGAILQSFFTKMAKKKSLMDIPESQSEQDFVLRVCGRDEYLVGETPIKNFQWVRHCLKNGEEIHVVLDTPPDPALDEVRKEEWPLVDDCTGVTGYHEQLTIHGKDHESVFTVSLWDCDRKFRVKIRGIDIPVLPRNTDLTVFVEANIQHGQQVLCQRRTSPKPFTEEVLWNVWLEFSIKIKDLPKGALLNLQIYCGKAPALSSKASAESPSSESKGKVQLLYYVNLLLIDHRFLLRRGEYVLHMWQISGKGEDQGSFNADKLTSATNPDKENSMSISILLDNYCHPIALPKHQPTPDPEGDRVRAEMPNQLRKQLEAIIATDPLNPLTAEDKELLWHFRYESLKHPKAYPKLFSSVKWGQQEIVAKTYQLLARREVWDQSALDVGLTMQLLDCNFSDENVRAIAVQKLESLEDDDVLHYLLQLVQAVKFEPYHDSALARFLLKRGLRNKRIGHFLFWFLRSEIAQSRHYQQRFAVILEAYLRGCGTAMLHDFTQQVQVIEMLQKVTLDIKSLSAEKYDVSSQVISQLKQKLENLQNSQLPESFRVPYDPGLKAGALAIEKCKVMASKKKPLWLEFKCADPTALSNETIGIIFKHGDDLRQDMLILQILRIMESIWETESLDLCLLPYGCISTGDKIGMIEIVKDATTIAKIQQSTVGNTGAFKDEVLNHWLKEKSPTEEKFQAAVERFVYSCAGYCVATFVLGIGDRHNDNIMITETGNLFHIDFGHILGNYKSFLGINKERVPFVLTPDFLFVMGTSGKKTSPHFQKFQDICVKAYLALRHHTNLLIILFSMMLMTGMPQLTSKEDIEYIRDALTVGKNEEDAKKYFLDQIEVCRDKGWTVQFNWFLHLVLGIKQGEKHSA
T1 sequence (O00329 whole entry, species assumed): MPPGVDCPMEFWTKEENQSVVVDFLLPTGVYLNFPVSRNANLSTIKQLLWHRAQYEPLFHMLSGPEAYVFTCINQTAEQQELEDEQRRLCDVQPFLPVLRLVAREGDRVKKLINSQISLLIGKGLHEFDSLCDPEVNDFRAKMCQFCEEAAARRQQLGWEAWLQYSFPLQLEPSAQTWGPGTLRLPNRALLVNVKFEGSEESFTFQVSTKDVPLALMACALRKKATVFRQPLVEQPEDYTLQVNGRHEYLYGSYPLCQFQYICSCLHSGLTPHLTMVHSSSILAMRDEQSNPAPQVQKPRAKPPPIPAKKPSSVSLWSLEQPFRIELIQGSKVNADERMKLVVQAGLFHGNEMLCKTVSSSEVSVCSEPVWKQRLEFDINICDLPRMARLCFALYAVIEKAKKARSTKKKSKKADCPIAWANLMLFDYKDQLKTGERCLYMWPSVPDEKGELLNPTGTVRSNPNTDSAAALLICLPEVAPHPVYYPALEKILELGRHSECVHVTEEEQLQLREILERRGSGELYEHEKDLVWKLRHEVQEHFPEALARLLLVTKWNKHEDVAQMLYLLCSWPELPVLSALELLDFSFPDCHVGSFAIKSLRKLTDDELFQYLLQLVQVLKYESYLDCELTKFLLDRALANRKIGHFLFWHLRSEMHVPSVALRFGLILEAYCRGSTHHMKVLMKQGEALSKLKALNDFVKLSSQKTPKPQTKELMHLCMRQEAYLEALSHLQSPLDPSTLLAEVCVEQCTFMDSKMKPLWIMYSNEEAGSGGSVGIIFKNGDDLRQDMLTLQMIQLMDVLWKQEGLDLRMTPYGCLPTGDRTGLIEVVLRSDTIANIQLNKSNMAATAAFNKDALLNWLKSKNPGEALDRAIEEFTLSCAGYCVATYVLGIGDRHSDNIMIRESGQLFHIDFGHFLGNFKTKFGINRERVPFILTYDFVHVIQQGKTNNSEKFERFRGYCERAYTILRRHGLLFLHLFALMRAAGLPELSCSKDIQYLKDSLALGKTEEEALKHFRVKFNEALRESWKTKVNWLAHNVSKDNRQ
T1 sequence (P27986 whole entry partner, species assumed): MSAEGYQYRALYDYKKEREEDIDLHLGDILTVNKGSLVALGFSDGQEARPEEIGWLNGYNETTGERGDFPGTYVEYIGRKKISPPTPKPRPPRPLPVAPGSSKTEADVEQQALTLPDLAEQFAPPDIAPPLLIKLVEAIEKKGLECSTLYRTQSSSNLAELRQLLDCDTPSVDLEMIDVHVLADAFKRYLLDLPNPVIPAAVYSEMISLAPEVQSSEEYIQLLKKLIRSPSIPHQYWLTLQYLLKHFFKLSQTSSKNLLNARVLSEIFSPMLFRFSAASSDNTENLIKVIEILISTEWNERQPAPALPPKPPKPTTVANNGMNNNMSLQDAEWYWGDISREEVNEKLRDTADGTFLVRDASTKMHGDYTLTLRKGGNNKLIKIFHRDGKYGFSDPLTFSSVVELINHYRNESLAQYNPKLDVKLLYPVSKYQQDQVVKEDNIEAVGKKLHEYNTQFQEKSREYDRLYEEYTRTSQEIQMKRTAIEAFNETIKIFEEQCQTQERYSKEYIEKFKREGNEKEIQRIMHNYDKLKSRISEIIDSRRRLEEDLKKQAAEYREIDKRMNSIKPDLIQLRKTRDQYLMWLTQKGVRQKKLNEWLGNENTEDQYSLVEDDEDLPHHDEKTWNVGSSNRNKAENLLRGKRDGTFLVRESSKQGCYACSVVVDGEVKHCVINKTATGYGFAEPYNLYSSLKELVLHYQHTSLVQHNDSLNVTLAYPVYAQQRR

What is called IC50 is the midpoint of a concentration-inhibition curve. A high value points to weaker potency in that assay. Consider `Cc1csc2nc(C(C)Nc3nc(N)nc4[nH]cnc34)c(-c3ccccc3)c(=O)n12` (stereo not drawn) [Example 9, 7-{1-[(2-amino-9H-purin-6-yl)amino]ethyl}-3-methyl-6-phenyl-5H-[1,3]thiazolo[3,2-a]pyrimidin-5-one], for which the IC50 in assay [1] was 50 to 100 nM; in assay [2], less than 50 nM; in assay [3], less than 50 nM.
With `Cc1csc2nc(C(C)Nc3nc(N)nc4[nH]cnc34)c(-c3cccc(F)c3)c(=O)n12` (stereo not drawn) [Example 11, 7-{1-[(2-amino-9H-purin-6-yl)amino]ethyl}-6-(3-fluorophenyl)-3-methyl-5H-[1,3]thiazolo[3,2-a]pyrimidin-5-one], the IC50 in assay [1] is 100 to 500 nM; in assay [2], less than 50 nM; in assay [3] it was less than 50 nM.
For `Cc1csc2nc(C(C)Nc3nc(N)nc4[nH]cnc34)c(-c3cc(F)cc(F)c3)c(=O)n12` (stereo not drawn) [Example 13, 7-{1-[(2-amino-9H-purin-6-yl)amino]ethyl}-6-(3,5-difluorophenyl)-3-methyl-5H-[1,3]thiazolo[3,2-a]pyrimidin-5-one], the IC50 in assay [1] was 100 to 500 nM; in assay [2], less than 50 nM; in assay [3] it was less than 50 nM.
